Source: publication PMC7650666, “Computational and In Vitro Investigation of (-)-Epicatechin and Proanthocyanidin B2 as Inhibitors of Human Matrix Metalloproteinase 1” (Biomolecules, 2020)

Assays:
[1] = target: T1, Matrix metalloproteinase 1 (MMP-1) (Homo sapiens, UniProt P03956); assay: casein zymography of protein from fibroblast culture medium preincubated with compound; type: cell-based; conditions: read-out: % inhibition at 1000 μg/mL
T1 construct: gene MMP1; MMP-1 secreted by human fibroblast (Detroit551) cells, 54 kDa band
T1 sequence (P03956 20-469): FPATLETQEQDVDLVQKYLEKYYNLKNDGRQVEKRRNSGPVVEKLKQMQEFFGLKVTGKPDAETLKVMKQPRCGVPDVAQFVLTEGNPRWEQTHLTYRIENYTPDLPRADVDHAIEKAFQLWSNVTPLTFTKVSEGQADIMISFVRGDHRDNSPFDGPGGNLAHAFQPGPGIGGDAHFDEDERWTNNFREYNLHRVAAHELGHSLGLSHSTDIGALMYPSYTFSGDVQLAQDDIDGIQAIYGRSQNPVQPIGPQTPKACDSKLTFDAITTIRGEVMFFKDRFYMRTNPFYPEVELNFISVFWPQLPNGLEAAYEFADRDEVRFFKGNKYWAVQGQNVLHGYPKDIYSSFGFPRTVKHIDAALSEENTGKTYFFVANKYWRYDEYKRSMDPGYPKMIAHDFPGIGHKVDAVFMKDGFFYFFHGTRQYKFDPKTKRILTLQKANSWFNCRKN

[2] = target: T1, Matrix metalloproteinase 1 (MMP-1); assay: casein zymography of protein from fibroblast culture medium preincubated with compound (reference inhibitor); type: cell-based; conditions: read-out: % inhibition at 1000 μg/mL

Row | inhibition at 1000 µg/mL [1] [%] | Structure (SMILES) | inhibition at 1000 µg/mL [2] [%]
1 | 69.2 | Oc1cc(O)c2c(c1)O[C@H](c1ccc(O)c(O)c1)[C@H](O)C2 [(-)-epicatechin] | –
2 | – | O=C(O[C@@H]1Cc2c(O)cc(O)cc2O[C@@H]1c1cc(O)c(O)c(O)c1)c1cc(O)c(O)c(O)c1 [epigallocatechin gallate] | 75.6
3 | 43.4 | Oc1cc(O)c2c(c1)O[C@H](c1ccc(O)c(O)c1)[C@H](O)[C@H]2c1c(O)cc(O)c2c1O[C@H](c1ccc(O)c(O)c1)[C@H](O)C2 [proanthocyanidin B2] | –
